A short description of data set [1]: The drug is tested on Bacteroides pectinophilus strain: ATCC43243 for biotransformation. The drug concentrations were measured before and after a 12-h incubation by liquid-chromatography-coupled mass spectrometry (LC–MS). As to conditions: 2 µM.
A short description of data set [2]: The drug is tested on Blautia hansenii strain: DSM20583 for biotransformation. The drug concentrations were measured before and after a 12-h incubation by liquid-chromatography-coupled mass spectrometry (LC–MS). Particulars: 2 µM.
Data set [3] can be described thus: The drug is tested on Dorea formicigenerans strain: ATCC27755 for biotransformation. The drug concentrations were measured before and after a 12-h incubation by liquid-chromatography-coupled mass spectrometry (LC–MS). As to conditions: 2 µM.
The conditions of data set [4]: bacteroides intestinalis, 12 h, 2 µM.
Description: The drug is tested on Bacteroides intestinalis strain: DSM17393 for biotransformation. The drug concentrations were measured before and after a 12-h incubation by liquid-chromatography-coupled mass spectrometry (LC–MS)
Data set [5] is described as follows: The drug is tested on Bacteroides coprophilus strain: DSM18228 for biotransformation. The drug concentrations were measured before and after a 12-h incubation by liquid-chromatography-coupled mass spectrometry (LC–MS). As to conditions: 2 µM.
The conditions of data set [6]: bacteroides stercoris, 12 h, 2 µM.
Description: The drug is tested on Bacteroides stercoris strain: ATCC43183 for biotransformation. The drug concentrations were measured before and after a 12-h incubation by liquid-chromatography-coupled mass spectrometry (LC–MS)
The nature of data set [7]: The drug is tested on Edwardsiella tarda strain: ATCC23685 for biotransformation. The drug concentrations were measured before and after a 12-h incubation by liquid-chromatography-coupled mass spectrometry (LC–MS). As to conditions: 2 µM.
For data set [8] the following is noted: akkermansia muciniphila, 12 h, 2 µM.
Description: The drug is tested on Akkermansia muciniphila strain: ATCC BAA-835 for biotransformation. The drug concentrations were measured before and after a 12-h incubation by liquid-chromatography-coupled mass spectrometry (LC–MS)
For data set [9] the following is noted: enterocloster bolteae, 12 h, 2 µM.
Description: The drug is tested on Clostridium bolteae strain: ATCCBAA-613 for biotransformation. The drug concentrations were measured before and after a 12-h incubation by liquid-chromatography-coupled mass spectrometry (LC–MS)
A short description of data set [10]: The drug is tested on Ruminococcus gnavus strain: ATCC29149 for biotransformation. The drug concentrations were measured before and after a 12-h incubation by liquid-chromatography-coupled mass spectrometry (LC–MS). Particulars: mediterraneibacter gnavus, 2 µM.
The conditions of data set [11]: parabacteroides distasonis, 12 h, 2 µM.
Description: The drug is tested on Parabacteroides distasonis strain: ATCC8503 for biotransformation. The drug concentrations were measured before and after a 12-h incubation by liquid-chromatography-coupled mass spectrometry (LC–MS)
Data set [12] in a line: The drug is tested on Providencia stuartii strain: ATCC25827 for biotransformation. The drug concentrations were measured before and after a 12-h incubation by liquid-chromatography-coupled mass spectrometry (LC–MS). Particulars: 2 µM.
Data set [13] can be described thus: The drug is tested on Coprococcus comes strain: ATCC27758 for biotransformation. The drug concentrations were measured before and after a 12-h incubation by liquid-chromatography-coupled mass spectrometry (LC–MS). It is filed as ADME. The arrangement: dose 2 uM, timepoint 0 vs 12 hours. Particulars: 2 µM.
Data set [14] can be described thus: The drug is tested on Bacteroides xylanisolvens strain: DSM18836 for biotransformation. The drug concentrations were measured before and after a 12-h incubation by liquid-chromatography-coupled mass spectrometry (LC–MS). As to conditions: 2 µM.
Data set [15] in a line: The drug is tested on Bacteroides fragilis strain: HMW615 for biotransformation. The drug concentrations were measured before and after a 12-h incubation by liquid-chromatography-coupled mass spectrometry (LC–MS). As to conditions: 2 µM.
The nature of data set [16]: The drug is tested on Bacteroides vulgatus strain: ATCC8482 for biotransformation. The drug concentrations were measured before and after a 12-h incubation by liquid-chromatography-coupled mass spectrometry (LC–MS). As to conditions: phocaeicola vulgatus, 2 µM.
Data set [17] in a line: The drug is tested on Bacteroides fragilis strain: HMW610 for biotransformation. The drug concentrations were measured before and after a 12-h incubation by liquid-chromatography-coupled mass spectrometry (LC–MS). Particulars: 2 µM.
For data set [18] the following is noted: parabacteroides johnsonii, 12 h, 2 µM.
Description: The drug is tested on Parabacteroides johnsonii strain: DSM18315 for biotransformation. The drug concentrations were measured before and after a 12-h incubation by liquid-chromatography-coupled mass spectrometry (LC–MS)
Data set [19] is described as follows: The drug is tested on Enterobacter cancerogenus strain: ATCC35316 for biotransformation. The drug concentrations were measured before and after a 12-h incubation by liquid-chromatography-coupled mass spectrometry (LC–MS). Particulars: 2 µM.

SMILES strings stand for the structures.

In the case of `COc1cc2nc(N(C)CCCNC(=O)C3CCCO3)nc(N)c2cc1OC` (centres undefined) [ALFUZOSIN], the “Bacterial Biotransformation” value in data set [1], in data set [2], in data set [3], in [4], in data set [5] and in data set [6] was “Compound NOT metabolized” in each case. Moreover, the “Bacterial Biotransformation” value in data set [7], in data set [8], in data set [9], in data set [10], in data set [11] and in data set [12] was “Compound NOT metabolized” throughout. The “Bacterial Biotransformation” value in data set [13], in [14] and in [15] was “Compound NOT metabolized” each time.
For the compound `O=P(O)(O)O.c1ccc(CN(CC2=NCCN2)c2ccccc2)cc1` [ANTAZOLINE PHOSPHATE], the “Bacterial Biotransformation” value in data set [1], in [2], in [3], in data set [4], in [5] and in [6] was “Compound NOT metabolized” throughout. Also, the “Bacterial Biotransformation” value in [7], in data set [8], in data set [9], in [10], in data set [16] and in [12] was “Compound NOT metabolized” in each case. Besides, the “Bacterial Biotransformation” value in [13], in data set [14] and in data set [17] was “Compound NOT metabolized” throughout.
On to `O=C1CC2(CCCC2)CC(=O)N1CCCCN1CCN(c2ncccn2)CC1` [BUSPIRONE], for which the “Bacterial Biotransformation” value in data set [1], in data set [18], in data set [2], in data set [3], in data set [4] and in data set [5] was “Compound NOT metabolized” in each case. Besides, the “Bacterial Biotransformation” value in [6], in data set [7], in data set [8], in data set [9], in [10] and in data set [11] was “Compound NOT metabolized” in each case. In addition, the “Bacterial Biotransformation” value in [12], in data set [13], in data set [14], in [15] and in data set [17] was “Compound NOT metabolized” throughout.
Consider `COC1=CC(=O)C[C@@H](C)[C@]12Oc1c(Cl)c(OC)cc(OC)c1C2=O` [GRISEOFULVIN], for which the “Bacterial Biotransformation” value was “Compound NOT metabolized” in [1]; “Compound metabolized” in [2]; “Compound NOT metabolized” in [3]; “Compound NOT metabolized” in [7]; “Compound metabolized” in [8]; “Compound NOT metabolized” in data set [9]. Besides, the “Bacterial Biotransformation” value in data set [10] was “Compound metabolized”; in data set [16], “Compound metabolized”; in data set [11], “Compound metabolized”; in data set [13], “Compound NOT metabolized”; in data set [14] it was “Compound metabolized”; in data set [15] it was “Compound metabolized”.
As for `O=c1n(CCCN2CCN(c3cccc(Cl)c3)CC2)nc2ccccn12` [TRAZODONE], the “Bacterial Biotransformation” value in [1], in data set [18], in [3], in [4], in [5] and in data set [6] was “Compound NOT metabolized” throughout. The “Bacterial Biotransformation” value in data set [7], in [8], in data set [9], in data set [16], in data set [11] and in [12] was “Compound NOT metabolized” in each case. Further, the “Bacterial Biotransformation” value in data set [13], in [14], in data set [19], in data set [15] and in data set [17] was “Compound NOT metabolized” each time.
`COc1ccc(C(CN(C)C)C2(O)CCCCC2)cc1` (centres undefined) [VENLAFAXINE]: the “Bacterial Biotransformation” value in data set [1], in [18], in [3], in data set [4], in data set [5] and in data set [6] was “Compound NOT metabolized” each time. The “Bacterial Biotransformation” value in data set [7], in data set [8], in data set [9], in data set [10], in [16] and in data set [11] was “Compound NOT metabolized” in each case. Further, the “Bacterial Biotransformation” value in data set [12], in data set [14], in data set [19], in data set [15] and in data set [17] was “Compound NOT metabolized” each time.
Consider `CCN(C(C)=O)c1cccc(-c2ccnc3c(C#N)cnn23)c1` [ZALEPLON], for which the “Bacterial Biotransformation” value in [1] is on record as “Compound NOT metabolized”; in [2] it was “Compound metabolized”; in data set [3] it was “Compound NOT metabolized”; in data set [4] it was “Compound NOT metabolized”; in [5], “Compound NOT metabolized”; in [6], “Compound NOT metabolized”. Further, the “Bacterial Biotransformation” value in data set [8] is “Compound NOT metabolized”; in [10] it was “Compound NOT metabolized”; in [16] it was “Compound metabolized”; in [11] it was “Compound NOT metabolized”; in data set [12], “Compound NOT metabolized”; in data set [13], “Compound NOT metabolized”. Moreover, the “Bacterial Biotransformation” value in [14], in [15] and in data set [17] was “Compound metabolized” each time.
On to `Cc1cn([C@H]2C[C@H](N=[N+]=[N-])[C@@H](CO)O2)c(=O)[nH]c1=O` [ZIDOVUDINE], for which the “Bacterial Biotransformation” value in data set [1] is “Compound NOT metabolized”; in data set [18], “Compound metabolized”; in data set [4] it was “Compound NOT metabolized”; in [5] it was “Compound NOT metabolized”; in [6] it was “Compound metabolized”; in [7], “Compound NOT metabolized”. Besides, the “Bacterial Biotransformation” value was “Compound NOT metabolized” in data set [8]; “Compound NOT metabolized” in data set [9]; “Compound metabolized” in data set [16]; “Compound NOT metabolized” in data set [11]; “Compound NOT metabolized” in data set [12]; “Compound metabolized” in [13]. Besides, the “Bacterial Biotransformation” value in [14] was “Compound metabolized”; in data set [19], “Compound NOT metabolized”; in data set [15] it was “Compound NOT metabolized”; in data set [17], “Compound NOT metabolized”.

(Values after ChEMBL document CHEMBL5303573, “Mapping human microbiome drug metabolism by gut bacteria and their genes” (Nature, 2019).)
